Test results from US9540314B2, “N-cycloalkyl-N-[(cycloalkenylphenyl)methylene]-(thio) carboxamide derivatives” (BAYER INTELLECTUAL PROPERTY GMBH, priority 2012, dated 2017).

Key:
Alternaria solani = experiment: In vivo preventive test on Alternaria solani (tomato); conditions: 100 ppm, evaluated 3 days after inoculation
Method: Solvent: 24.5 parts by weight of acetone
• 24.5 parts by weight of N,N-dimethylacetamide Emulsifier: 1 part by weight of alkylarylpolyglycol ether
(§1) To produce a suitable preparation of active compound, 1 part by weight of active compound is mixed with the stated amounts of solvent and emulsifier, and the concentrate is diluted with water to the desired concentration.
(§2) To test for preventive activity, young plants are sprayed with the preparation of active compound at the stated rate of application. After the spray coating has dried on, the plants are inoculated with an aqueous spore suspension of Alternaria solani. The plants are then placed in an incubation cabinet at approximately 20° C. and a relative atmospheric humidity of 100%.
The test is evaluated 3 days after the inoculation. 0% means an efficacy which corresponds to that of the untreated control while an efficacy of 100% means that no disease is observed.
Under these conditions, high (at least 90%) protection is observed at a dose of 100 ppm of active ingredient with the following compound from table B: […]

Alternaria brassicae = experiment: In vivo preventive test on Alternaria brassicae (leaf spot on radish); conditions: Table C1, 500 ppm, radish plants, grading 6 days after contamination
Method: (§3) The active ingredients tested are prepared by homogenization in a mixture of acetone/tween/DMSO, and then diluted with water to obtain the desired active material concentration.
Radish plants (“Pernod Clair” variety), sown in starter cups on a 50/50 peat soil pozzolana substrate and grown at 17° C., are treated at the cotyledon stage by spraying with the active ingredient prepared as described above. Plants, used as controls, are treated with the mixture of acetone/tween/DMSO/water not containing the active material.
After 24 hours, the plants are contaminated by spraying the cotyledons with an aqueous suspension of Alternaria brassicae spores (50 000 spores per mL). The spores are collected from a 15-day-old culture.
The contaminated radish plants are incubated at 20° C. and at 100% relative humidity.
Grading (% of efficacy) is carried out 6 days after the contamination, in comparison with the control plants.
Under these conditions, high (at least 80%) to excellent (at least 90%) protection is observed at a dose of 500 ppm of active ingredient with the following compounds from table C1: […]

Venturia inaequalis = experiment: In vivo preventive test on Venturia inaequalis (apples); conditions: 100 ppm, evaluated 10 days after inoculation
Method: as §1
as §2, with “conidia” for “spore”, “the causal agent of apple scab (Venturia inaequalis) and” for “Alternaria solani. The plants are”, “remain for 1 day” for “placed”
The plants are then placed in a greenhouse at approximately 21° C. and a relative atmospheric humidity of approximately 90%.
The test is evaluated 10 days after the inoculation. 0% means an efficacy which corresponds to that of the untreated control, while an efficacy of 100% means that no disease is observed.
Under these conditions, excellent (at least 95%) protection is observed at a dose of 100 ppm of active ingredient with the following compound from table D: […]

Botrytis cinerea = experiment: In vivo preventive test on Botrytis cinerea (beans)
Method: as §1
To test for preventive activity, young plants are sprayed with the preparation of active compound. After the spray coating has dried on, 2 small pieces of agar covered with growth of Botrytis cinerea are placed on each leaf. The inoculated plants are placed in a darkened chamber at 20° C. and a relative atmospheric humidity of 100%.
2 days after the inoculation, the size of the lesions on the leaves is evaluated. 0% means an efficacy which corresponds to that of the untreated control, while an efficacy of 100% means that no disease is observed.
Under these conditions, excellent (at least 95%) protection is observed at a dose of 100 ppm of active ingredient with the following compound from table E1: […]

Leptosphaeria nodorum = experiment: In vivo preventive test on Leptosphaeria nodorum (wheat); conditions: 100 ppm, evaluated 7-9 days after inoculation
Method: Solvent: 49 parts by weight of N,N-dimethylacetamide
Emulsifier: 1 part by weight of alkylarylpolyglycol ether
To produce a suitable preparation of active compound, 1 part by weight of active compound or active compound combination is mixed with the stated amounts of solvent and emulsifier, and the concentrate is diluted with water to the desired concentration.
To test for preventive activity, young plants are sprayed with the preparation of active compound or active compound combination at the stated rate of application.
After the spray coating has been dried, the plants are sprayed with a spore suspension of Leptosphaeria nodorum. The plants remain for 48 hours in an incubation cabinet at approximately 20° C. and a relative atmospheric humidity of approximately 100%.
The plants are placed in the greenhouse at a temperature of approximately 22° C. and a relative atmospheric humidity of approximately 80%.
The test is evaluated 7-9 days after the inoculation. 0% means an efficacy which corresponds to that of the untreated control, while an efficacy of 100% means that no disease is observed.
Under these conditions, excellent (at least 95%) protection is observed at a dose of 100 ppm of active ingredient with the following compound from table G: […]

Puccinia recondita = experiment: In vivo preventive test on Puccinia recondita (brown rust on wheat); conditions: 500 ppm of active ingredient; wheat plants, preventive spray; grading 12 days after contamination
In short: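 Wheat ("Scipion") at the 1-leaf stage was sprayed with compound in acetone/tween/DMSO/water, then inoculated 24 h later with Puccinia recondita spores (100 000 spores per mL). Plants were held 24 h at 20° C and 100% RH, then 10 days at 20° C and 70-80% RH. Efficacy (%) was graded 12 days post-inoculation against solvent-treated controls.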

Septoria tritici = experiment: In vivo preventive test on Septoria tritici (wheat); conditions: 500 ppm of active ingredient; wheat plants, preventive spray; grading 24 days after contamination
Method: as §3
Wheat plants (“Scipion” variety), sown in starter cups on a 50/50 peat soil pozzolana substrate and grown at 22° C., are treated at the 1 leaf stage (10 cm height) by spraying with the active ingredient prepared as described above. Plants, used as controls, are treated with the mixture of acetone/tween/DMSO/water not containing the active material.
After 24 hours, the plants are contaminated by spraying the leaves with an aqueous suspension of cryopreserved Septoria tritici spores (500 000 spores per mL). The contaminated wheat plants are incubated for 72 hours at 18° C. and at 100% relative humidity, and then for 21 days at 90% relative humidity.
Grading (% of efficacy) is carried out 24 days after the contamination, in comparison with the control plants.
Under these conditions, good (at least 70%) to total protection is observed at a dose of 500 ppm of active ingredient with the following compounds from table J: […]

## Cc1nn(C)c(F)c1C(=O)N(C1CC1)C(C)c1ccccc1C1=CCCC1 (racemic) [I.1]
Alternaria solani
  Efficacy: 94%
Alternaria brassicae
  Efficacy: 98%
Venturia inaequalis
  Efficacy: 98%
Botrytis cinerea; Table E1, 100 ppm, lesion size 2 days after inoculation
  Efficacy: 98%
Botrytis cinerea; Table E2, dose 100 ppm, 2 days after inoculation
  Efficacy: 98%
Botrytis cinerea; Table E2, dose 100 ppm, 2 days after inoculation, listed as 1.1
  Efficacy: at least 95%
Botrytis cinerea; Table E2, dose 250 ppm, 2 days after inoculation
  Efficacy: 98%
Botrytis cinerea; Table E2, dose 250 ppm, 2 days after inoculation, listed as 1.1
  Efficacy: at least 95%
Leptosphaeria nodorum
  Efficacy: 95%
Puccinia recondita
  Efficacy: 81%
Septoria tritici
  Efficacy: 97%
